Where no end group is shown, it is not given here.
Test system: anti-octapeptide M2 monoclonal antibody
Test: heterogeneous competitive immunoassay with immobilized M2 antibody and octapeptide-GFP conjugate, selectivity study
Format: binding
Conditions: sequential incubation 25 min + 25 min, supernatant fluorescence (FIG. 10)
Description: A dose-response curve was constructed by incubating 200 μL of a solution of different concentrations of the octapeptide with 200 μL of a 140 μg/mL suspension of the immobilized antibody and 90 μL of 1.1×10^−8 M of octapeptide-GFP conjugate and 1.510 mL of PBS buffer.
The incubations were performed in a sequential manner. Initially, the octapeptide was incubated with the beads for 25 min. Then, the tubes were centrifuged at 2000×g for 15 min, the supernatant was removed, and the beads were washed three times with PBS. PBS (1.710 mL) and the octapeptide-GFP conjugate were added, and the mixture was incubated for an additional 25 min at room temperature. The beads were then centrifuged again as described, and 1.7 mL of the supernatant was transferred to plastic cuvettes for measurement of fluorescence emission at 508 nm. The selectivity of the assay was evaluated by constructing a dose-response curve for rev-octapeptide, an octapeptide with the amino acids of the octapeptide in the reverse order.
In the case of “KDDDDKYD [rev-octapeptide, octapeptide with the amino acids of the octapeptide in the reverse order]”, the “response in dose-response curve (displacement of octapeptide-GFP from M2 antibody)” value is reported as “essentially no response”.

Target: Avidin (Gallus gallus, UniProt P02701)
Sequence (P02701 25-152): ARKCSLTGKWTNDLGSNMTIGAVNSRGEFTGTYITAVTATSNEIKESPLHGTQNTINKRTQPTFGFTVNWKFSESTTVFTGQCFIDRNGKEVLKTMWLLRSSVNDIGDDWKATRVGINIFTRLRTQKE
Test: not given
Conditions: association (affinity) constant of the binding pair substance: Avidin; cited from earlier work
For `COC(=O)CCCCC1SCC2NC(=O)N(C(=O)OC)C21` (stereo not drawn) [3′-N-methoxy-carbonylbiotin methyl ester], the Ka is listed as 10^9 M^−1.
In the case of `C[C@@H]1NC(=O)N[C@@H]1CCCCCC(=O)O` [Dethiobiotin], the Ka is given as 10^13 M^−1.
In the case of `O=C(O)CCCC[C@@H]1SC[C@@H]2NC(=O)N[C@@H]21` [Biotin], the Ka is listed as 10^15 M^−1.
In the case of `O=C(O)CCCCC1SCC2NC(=S)NC21` (stereo not drawn) [2-thiobiotin], the Ka is listed as 10^13 M^−1.
For `N=C1N[C@H]2[C@H](CS[C@H]2CCCCC(=O)O)N1` [Iminobiotin], the Ka is given as 10^11 M^−1.

— patent publication US20050282225A1, “Quantitative binding assays using green fluorescent protein as a label” (priority 1998, published 2005)
